# Results reported in PMC4867616, “Imaging of Cerebral Amyloid Angiopathy with Bivalent ^99mTc-Hydroxamamide Complexes” (Scientific Reports, 2016).
# Several values for one entry are separate records, joined by “and”; a condition that tells them apart may be missing. Identical values can stand only once.
# Legend:
# [1] = Ex vivo biodistribution in normal mice; design: species or system ddY mice; conditions: i.v., mean (SD), 5 animals
# Procedure: To evaluate brain uptake of ^99mTc-Ham complexes, biodistribution experiments of ^99mTc-Ham complexes were performed in normal mice. We selected ^18F-florbetapir as a control and compared the results of ^99mTc-Ham complexes with that of ^18F-florbetapir (Fig. 2). The brain uptake of [^99mTc]SB1A, [^99mTc]SB2A, [^99mTc]BT1B, and [^99mTc]BT2B at 2 min postinjection was 0.37, 0.28, 0.36, and 0.37% injected dose (ID)/g, respectively. The radioactivity in the brains remained low until 60 min postinjection. The results of the biodistribution study are shown in Table S1 in Supplementary information.
# A saline solution (100 μL) of ^99mTc-Ham complexes (20 kBq) containing EtOH (10 μL) was injected directly into the tail vein of ddY mice (male, 5 weeks old). The mice were sacrificed at 2, 10, 30, and 60 min postinjection. The organs of interest were removed and weighed, and radioactivity was measured using a γ counter (PerkinElmer). The %ID/g of samples was calculated by comparing the sample counts with the count of the diluted initial dose.
# *Corresponding author: M. Ono. Address: 46-29 Yoshida Shimoadachi-cho, Sakyo-ku, Kyoto 606-8501, Japan, Phone: +81-75-753-4608, Fax: +81-75-753-4568, E-mail: ono@pharm.kyoto-u.ac.jp. Ex vivo biodistribution in normal mice. A saline solution (100 μL) of ^99mTc-Ham complexes (20 kBq) containing EtOH (10 μL) was injected directly into the tail vein of ddY mice (male, 5 weeks old). The mice were sacrificed at 2, 10, 30, and 60 min postinjection. The organs of interest were removed and weighed, and radioactivity was measured using a γ counter (Wallac 1470 Wizard; PerkinElmer, Massachusetts, USA). Percentage dose per organ was calculated by comparing the tissue counts to suitably diluted aliquots of the injected material. The %dose/g of samples was calculated by comparing the sample counts with the count of the diluted initial dose.
# [2] = normal mice, 2 min postinjection, similar experimental conditions; cited from earlier work
# Aβ = target: Aβ; design: method as in PMID 12801237, PMID 19837759; conditions: order of magnitude only; cited from earlier work
molecule,measurement,setting,value
"CN(C)c1ccc(/C=C/c2ccc(C3=N[O][99Tc-]4(=[O])([NH]C(c5ccc(N(C)C)cc5)=N[O]4)[NH2+]3)cc2)cc1 (single isomer, unassigned) [[^99mTc]SB1A]","Biodistribution of radioactivity, Blood",[1]; 2 min after injection,18.89 (4.57) % injected dose per gram
same,"Biodistribution of radioactivity, Brain",[1]; 2 min after injection,0.37 % injected dose per gram and 0.37 (0.05) % injected dose per gram
same,"Biodistribution of radioactivity, Heart",[1]; 2 min after injection,9.48 (2.01) % injected dose per gram
same,"Biodistribution of radioactivity, Intestine",[1]; 2 min after injection,1.94 (0.25) % injected dose per gram
same,"Biodistribution of radioactivity, Kidney",[1]; 2 min after injection,10.74 (2.03) % injected dose per gram
same,"Biodistribution of radioactivity, Liver",[1]; 2 min after injection,28.55 (4.86) % injected dose per gram
same,"Biodistribution of radioactivity, Lung",[1]; 2 min after injection,15.47 (4.14) % injected dose per gram
same,"Biodistribution of radioactivity, Pancreas",[1]; 2 min after injection,4.12 (0.62) % injected dose per gram
same,"Biodistribution of radioactivity, Spleen",[1]; 2 min after injection,9.73 (3.34) % injected dose per gram
same,"Biodistribution of radioactivity, Stomach",[1]; 2 min after injection,1.64 (0.41) % injected dose per organ
same,"Biodistribution of radioactivity, Blood",[1]; 10 min after injection,9.30 (1.96) % injected dose per gram
same,"Biodistribution of radioactivity, Brain",[1]; 10 min after injection,0.19 (0.02) % injected dose per gram
same,"Biodistribution of radioactivity, Heart",[1]; 10 min after injection,6.51 (0.77) % injected dose per gram
same,"Biodistribution of radioactivity, Intestine",[1]; 10 min after injection,4.27 (0.88) % injected dose per gram
same,"Biodistribution of radioactivity, Kidney",[1]; 10 min after injection,9.48 (1.28) % injected dose per gram
same,"Biodistribution of radioactivity, Liver",[1]; 10 min after injection,31.03 (2.29) % injected dose per gram
same,"Biodistribution of radioactivity, Lung",[1]; 10 min after injection,9.67 (0.88) % injected dose per gram
same,"Biodistribution of radioactivity, Pancreas",[1]; 10 min after injection,3.09 (0.38) % injected dose per gram
same,"Biodistribution of radioactivity, Spleen",[1]; 10 min after injection,9.70 (3.03) % injected dose per gram
same,"Biodistribution of radioactivity, Stomach",[1]; 10 min after injection,4.54 (0.97) % injected dose per organ
same,"Biodistribution of radioactivity, Blood",[1]; 30 min after injection,6.06 (0.29) % injected dose per gram
same,"Biodistribution of radioactivity, Brain",[1]; 30 min after injection,0.16 (0.03) % injected dose per gram
same,"Biodistribution of radioactivity, Heart",[1]; 30 min after injection,2.98 (0.63) % injected dose per gram
same,"Biodistribution of radioactivity, Intestine",[1]; 30 min after injection,7.06 (1.67) % injected dose per gram
same,"Biodistribution of radioactivity, Kidney",[1]; 30 min after injection,6.18 (0.84) % injected dose per gram
same,"Biodistribution of radioactivity, Liver",[1]; 30 min after injection,20.17 (3.18) % injected dose per gram
same,"Biodistribution of radioactivity, Lung",[1]; 30 min after injection,5.31 (0.67) % injected dose per gram
same,"Biodistribution of radioactivity, Pancreas",[1]; 30 min after injection,1.74 (0.33) % injected dose per gram
same,"Biodistribution of radioactivity, Spleen",[1]; 30 min after injection,7.86 (1.11) % injected dose per gram
same,"Biodistribution of radioactivity, Stomach",[1]; 30 min after injection,10.28 (2.03) % injected dose per organ
same,"Biodistribution of radioactivity, Blood",[1]; 60 min after injection,2.71 (0.14) % injected dose per gram
same,"Biodistribution of radioactivity, Brain",[1]; 60 min after injection,0.08 (0.00) % injected dose per gram
same,"Biodistribution of radioactivity, Heart",[1]; 60 min after injection,4.30 (0.14) % injected dose per gram
same,"Biodistribution of radioactivity, Intestine",[1]; 60 min after injection,14.34 (2.35) % injected dose per gram
same,"Biodistribution of radioactivity, Kidney",[1]; 60 min after injection,9.66 (0.18) % injected dose per gram
same,"Biodistribution of radioactivity, Liver",[1]; 60 min after injection,22.16 (2.20) % injected dose per gram
same,"Biodistribution of radioactivity, Lung",[1]; 60 min after injection,5.14 (0.29) % injected dose per gram
same,"Biodistribution of radioactivity, Pancreas",[1]; 60 min after injection,2.67 (0.07) % injected dose per gram
same,"Biodistribution of radioactivity, Spleen",[1]; 60 min after injection,5.44 (0.49) % injected dose per gram
same,"Biodistribution of radioactivity, Stomach",[1]; 60 min after injection,6.63 (1.12) % injected dose per organ
"CNc1ccc(/C=C/c2ccc(OCCOCCOCCF)nc2)cc1 [[^18F]florbetapir, reference compound]",Initial brain uptake,[2],4.90 %ID/g
same,Kd,Aβ,nM order
CN(C)c1ccc(C2=N[O][99Tc-]3(=[O])([NH]2)[NH2+]C(c2ccc4nc(-c5ccc(N(C)C)cc5)sc4c2)=N[O]3)cc1 [[^99mTc]BT1B],"Biodistribution of radioactivity, Blood",[1]; 2 min after injection,18.61 (2.47) % injected dose per gram
same,"Biodistribution of radioactivity, Brain",[1]; 2 min after injection,0.36 % injected dose per gram and 0.36 (0.03) % injected dose per gram
same,"Biodistribution of radioactivity, Heart",[1]; 2 min after injection,5.25 (0.22) % injected dose per gram
same,"Biodistribution of radioactivity, Intestine",[1]; 2 min after injection,0.90 (0.25) % injected dose per gram
same,"Biodistribution of radioactivity, Kidney",[1]; 2 min after injection,5.94 (0.73) % injected dose per gram
same,"Biodistribution of radioactivity, Liver",[1]; 2 min after injection,19.90 (4.06) % injected dose per gram
same,"Biodistribution of radioactivity, Lung",[1]; 2 min after injection,10.87 (2.06) % injected dose per gram
same,"Biodistribution of radioactivity, Pancreas",[1]; 2 min after injection,1.80 (0.28) % injected dose per gram
same,"Biodistribution of radioactivity, Spleen",[1]; 2 min after injection,3.83 (0.84) % injected dose per gram
same,"Biodistribution of radioactivity, Stomach",[1]; 2 min after injection,1.39 (0.21) % injected dose per organ
same,"Biodistribution of radioactivity, Blood",[1]; 10 min after injection,9.34 (2.62) % injected dose per gram
same,"Biodistribution of radioactivity, Brain",[1]; 10 min after injection,0.17 (0.04) % injected dose per gram
same,"Biodistribution of radioactivity, Heart",[1]; 10 min after injection,3.30 (1.02) % injected dose per gram
same,"Biodistribution of radioactivity, Intestine",[1]; 10 min after injection,2.00 (0.86) % injected dose per gram
same,"Biodistribution of radioactivity, Kidney",[1]; 10 min after injection,4.29 (1.25) % injected dose per gram
same,"Biodistribution of radioactivity, Liver",[1]; 10 min after injection,25.64 (6.77) % injected dose per gram
same,"Biodistribution of radioactivity, Lung",[1]; 10 min after injection,6.50 (1.41) % injected dose per gram
same,"Biodistribution of radioactivity, Pancreas",[1]; 10 min after injection,1.58 (0.55) % injected dose per gram
same,"Biodistribution of radioactivity, Spleen",[1]; 10 min after injection,3.00 (0.82) % injected dose per gram
same,"Biodistribution of radioactivity, Stomach",[1]; 10 min after injection,3.76 (0.82) % injected dose per organ
same,"Biodistribution of radioactivity, Blood",[1]; 30 min after injection,5.84 (0.65) % injected dose per gram
same,"Biodistribution of radioactivity, Brain",[1]; 30 min after injection,0.11 (0.02) % injected dose per gram
same,"Biodistribution of radioactivity, Heart",[1]; 30 min after injection,2.72 (0.28) % injected dose per gram
same,"Biodistribution of radioactivity, Intestine",[1]; 30 min after injection,6.81 (2.03) % injected dose per gram
same,"Biodistribution of radioactivity, Kidney",[1]; 30 min after injection,5.24 (0.59) % injected dose per gram
same,"Biodistribution of radioactivity, Liver",[1]; 30 min after injection,27.06 (2.49) % injected dose per gram
same,"Biodistribution of radioactivity, Lung",[1]; 30 min after injection,5.00 (0.34) % injected dose per gram
same,"Biodistribution of radioactivity, Pancreas",[1]; 30 min after injection,1.72 (0.11) % injected dose per gram
same,"Biodistribution of radioactivity, Spleen",[1]; 30 min after injection,3.11 (0.48) % injected dose per gram
same,"Biodistribution of radioactivity, Stomach",[1]; 30 min after injection,8.24 (1.41) % injected dose per organ
same,"Biodistribution of radioactivity, Blood",[1]; 60 min after injection,3.51 (0.34) % injected dose per gram
same,"Biodistribution of radioactivity, Brain",[1]; 60 min after injection,0.08 (0.02) % injected dose per gram
same,"Biodistribution of radioactivity, Heart",[1]; 60 min after injection,1.64 (0.32) % injected dose per gram
same,"Biodistribution of radioactivity, Intestine",[1]; 60 min after injection,9.95 (2.65) % injected dose per gram
same,"Biodistribution of radioactivity, Kidney",[1]; 60 min after injection,3.20 (0.45) % injected dose per gram
same,"Biodistribution of radioactivity, Liver",[1]; 60 min after injection,19.04 (3.61) % injected dose per gram
same,"Biodistribution of radioactivity, Lung",[1]; 60 min after injection,2.78 (0.54) % injected dose per gram
same,"Biodistribution of radioactivity, Pancreas",[1]; 60 min after injection,1.11 (0.18) % injected dose per gram
same,"Biodistribution of radioactivity, Spleen",[1]; 60 min after injection,1.36 (0.54) % injected dose per gram
same,"Biodistribution of radioactivity, Stomach",[1]; 60 min after injection,6.47 (0.85) % injected dose per organ
Thioflavin-S,Kd,Aβ,μM order
